Measured values reported in US7838539B2, “Nicotine receptor agonists in stem cell and progenitor cell recruitment” (priority 1999, dated 2010).
Like-named read-outs stand apart in the source and are kept apart here.

Assays:
[1] = tested on: fibrovascular growth into the disc (index of angiogenesis); assay: Disc angiogenesis system (DAS); type: in vivo, C57BL/6J mice; conditions: for angiogenesis in comparison to vehicle: agent in disc pellet: bFGF 20 mcg, Del-1 0.2 M, nicotine 10^-6 M; for effect on nicotine-induced fibrovascular growth: oral indomethacin 20 mcg/ml or LNNA 6 mg/ml
Text: To study whether nicotine induces angiogenesis in vivo, we employed the disc angiogenesis system (DAS) (Kowalski et al. (1992) Exp Mol Pathol 56(1):1-19; Fajardo et al. (1998) Lab Invest 58:718-7244).
Preparation of the disc The DAS consisted of a disc (11 mm in diameter and 1 mm thickness) made of a polyvinyl alcohol sponge (Kanebo PVA, Rippey Co., Santa Clara, Calif.). Both sides were covered with nitrocellulose cell-impermeable filters (Millipore filters, 0.45 μm in pore diameter, Millipore, SF, Calif.) of the same diameter as the sponge disc, fixed to the sponge using Millipore glue #1 (xx70000.00, Millipore). As a result, cells (and thus vessels) could penetrate or exit only through the rim of the disc (Kowalski et al. (1992) Exp Mol Pathol 56(1):1-19; Fajardo et al. (1998) Lab Invest 58:718-7244).
In order to study the local effect of nicotine on angiogenesis, nicotine was placed in a pellet which was added directly to the disc. Briefly, a 1.5-mm core (pellet) was cut from the disc center. Both the pellets and discs were sterilized prior to assembly in a laminar flow hood. The pellet was loaded with up to 20 mcl (μl) of the nicotine solution and subsequently air-dried. We placed in the disc pellets with either vehicle (PBS, Sigma, Chemical Co., St Louis, Mo., n=5) or nicotine (10^-6 M, Aldrich Chemical Company, Milwaukee, Wis., n=5) to study the effects of locally administered nicotine. For comparison, in some cases basic fibroblast growth factor (bFGF; 20 mcg) or Del-1 protein (0.2 M) was added to the pellet, rather than nicotine. Both bFGF and Del-1 are known to induce angiogenesis. The pellet was then coated with ethylene-vinyl acetate co-polymer (Elvax, Dupont, Chemcentral Corp., Chicago, Ill.) which would permit slow release of the nicotine from the pellet into the disc. The pellet was then re-inserted into the disc before sealing the disc with the millipore filters.
To study the systemic effects of nicotine, in some cases the animals were administered nicotine in their drinking water (see below).
Implantation of the disc The mice were anesthetized with 4% chloralhydrate [intraperitoneal administration (i.p.), 0.1 cc/10 g body weight]. The flanks and posterior surface of the thorax were shaved and cleaned with saturated 70% isopropyl alcohol. A 2-cm incision was made in the skin of the flank contra-lateral to the implantation site. Blunt dissection through the subcutaneous tissue produced a channel into which the saline moistened disc was inserted. The skin was closed with 5.0 silk suture (Kowalski et al. (1992) Exp Mol Pathol 56(1):1-19; Fajardo et al. (1998) Lab Invest 58:718-7244).
Disc removal and preparation Two weeks after disc implantation, the mice were sacrificed with an overdose of 4% chloral hydrate (i.p.) and cervical dislocation. A careful incision was made next to the skin overlying the implanted disc, and the disc was gently removed from the implantation site. Attached tissue was carefully detached from the disc. After removing the disc, one filter was separated from the disc. Discs were then fixed in 10% formalin and embedded flat in paraffin. Subsequently, 5 μm sections were made in a plane through the center of the disc and parallel to the disc surface.
Quantitation of results The disc sections were stained with H&E for light microscopy and histomorphometric measurement of radial growth, and stained with toluidine blue for quantitative determination of total area of fibrovascular growth. Using a video microscope and a computer assisted digital image analysis system (NIH Image 1.59b9), the entire area of fibrovascular growth in the toluidine blue stained disc was calculated and expressed in mm^2. As described in a previous study, total fibrovascular growth area is directly proportional to the total area of the disc occupied by blood vessels (Kowalski et al. (1992) Exp Mol Pathol 56(1):1-19; Fajardo et al. (1998) Lab Invest 58:718-7244).

in vivo = conditions: C57B16j, mouse, plasma, oral, 100 μg/ml in drinking water
Experimental: (§1) Mice (C57B16j) were given solution containing vehicle (0.4% saccharine in distilled water) or nicotine (100 μg/ml) ad libitum in their drinking water. After 6 weeks, peripheral blood, bone marrow and spleen were harvested. Cell counts were obtained in the blood, spleen and bone marrow, and bone marrow cells were isolated for fluorescent activated cell sorting (FACS). To detect hematopoietic stem cells (HSCs), fluorescently labeled antibodies directed against the following antigens were used: Lineage antigens (CD3,4,5, and 8; B220; Gr1, Mac1 and Ter119), cKit, Sca 1, and Flk2. HSCs were conventionally defined as Lin−, cKit+, Sca1+, and […]. All cells were stained with PI (propidium iodide) to separate live from dead cells.

[2] = tested on: capillary density in hindlimb muscle
Experimental: Mice were anesthetized with 4% chloral hydrate [intraperitoneal administration (i.p.), 0.1 cc/10 g body weight). The medial surface of both hind limbs were shaved and then cleaned with betadine solution. A 1.5-cm longitudinal incision was performed, extending from the knee to the inguinal ligament. Through this incision, the superficial femoral artery was dissected free along its length. After the distal ends of both the external iliac and superficial femoral arteries were ligated with 7.0 (Ethicon), complete excision of the femoral artery was performed. An additional set of mice underwent sham operation. The incisions were then closed with discontinuous stitches of 5.0 silk suture (Ethicon). Ampicillin (1 mg/10 gm body weight) intraperitoneal injection was administered after surgical procedure.
Tissue Preparation. Three weeks after surgery, mice were euthanized with an overdose of 4% chloral hydrate (i.p) and cervical dislocation, and the adductor and semimembranous muscles were collected for capillary density assessment. Briefly, a longitudinal incision in the medial thigh was made to expose the entire hindlimb muscle. The adductor and semimembranous muscles were removed and immediately frozen in OCT. Subsequently, sections 5 μm were taken from the mid-region of each muscle in a transverse orientation. The sections were air dried and fixed in acetone.
Capillary Densitometry. Immunohistochemistry was performed using an alkaline phosphatase assay to identify the endothelial cells. An eosin counterstain was used to differentiate myocytes. Capillaries and myocytes were identified and counted using light microscopy (20×). For each section, four different fields were selected and the total number of capillaries and myocytes per field determined. These values were averaged to provide a determination of capillary density for each experimental limb. To ensure that value for capillary density was not overestimated due to muscle atrophy, or underestimated due to interstitial edema, capillary density was expressed as a ratio of capillaries to myocytes present in the same field.
Daily intramuscular injections of nicotine solution or vehicle were administered (50 μl) for a period of three weeks.

[3] = tested on: endothelial progenitor cells (EPCs); conditions: nicotine 0.1 g/L drinking water, 3 weeks after ischemia
Text: In order to further examine the role of nicotine in induction of angiogenesis, the recruitment of endothelial progenitor cells was studied.
Parabiotic mouse pairs were created to investigate the mobilization and incorporation of precursors to vessel formation in normal and ischemic conditions using a hind limb ischemia model of angiogenesis (as described above), and the effect of nicotine. The parabiotic partners were selected so that they shared all major histocompatibility antigens, and were therefore free of immunological barriers to cell migration and angiogenesis. Assaying for genetic markers unique to one animal of the pair (e.g., the Y chromosome where the pair is made up of a female mouse and a male mouse) provides for unambiguous cell tracking between the mice. The model is further optimized by the use of a second genetic marker to differential the individuals (e.g., a transgene present in one partner and not the other), thus increasing the sensitivity and the accuracy of the identification of the origin of single cells. […]

hematopoietic stem cells = conditions: 100 μg/ml in drinking water, 6 weeks
Experimental: as §1

[4] = highest intramuscular dose (3.2 μg/kg daily, three weeks)

## bFGF: basic fibroblast growth factor, known to induce angiogenesis; comparison agent in the disc pellet
[1]
  angiogenesis in comparison to vehicle: increased angiogenesis to the same degree

## COc1ccc2c(c1)c(CC(=O)O)c(C)n2C(=O)c1ccc(Cl)cc1 [indomethacin]
[1]; local nicotine in disc
  effect on nicotine-induced fibrovascular growth: blocked
[1]; systemic nicotine
  effect on nicotine-induced fibrovascular growth: blocked

## CN1CCC[C@H]1c1cccnc1 [nicotine, S-3-(1-methyl-2-pyrrolidinyl)pyridine]
In vivo
  concentration at 6 weeks: 87 ng/mL
[2]; 0.03 μg/kg intramuscular daily for three weeks, vehicle control 0.35
  capillary density in the ischemic limb: 0.67 capillaries/myocyte
[2]; higher intramuscular doses
  angiogenic effect, dose dependence: less angiogenesis is observed
[2]; [4]
  angiogenesis in the ischemic limb: angiogenesis was not increased
  toxicity at injection site: some toxicity was observed, with evidence of interstitial edema and myocyte necrosis
[2]; intermediate intramuscular doses
  angiogenic effect, dose dependence: greatest effect
[2]; intramuscular nicotine in the ischemic limb, untreated non-ischemic limb
  angiogenic effect in non-ischemic hindlimbs: no angiogenic effect was detected
[1]
  angiogenesis in comparison to vehicle: increased angiogenesis to the same degree
[1]; systemic nicotine in drinking water
  angiogenesis with systemic nicotine compared with locally administered bFGF and Del-1: enhanced angiogenesis to a much greater degree
[1]; systemic versus local nicotine
  angiogenic effect of systemic compared with local nicotine administration: greater than local nicotine administration
[3]
  number of vessels: significant increase
[3]; saline group 1.6%, P<0.001
  percentage of vessels that incorporated EPC: 7.3%
Hematopoietic stem cells
  appearance of mice at the time of sacrifice: appeared healthy
  cellularity of the bone marrow: increased
  cellularity of the spleen: increased
  peripheral white blood cell count: elevated
Hematopoietic stem cells; FACS
  hematopoietic stem cells (kit/sca+ cells) in bone marrow: significant increase
  long term HSCs (self-renewing cells) in bone marrow: equal increases
  short term HSCs in bone marrow: an increase

## NC(=NCCC[C@H](N)C(=O)O)N[N+](=O)[O-] [LNNA, L, nitro-arginine]
[1]; local nicotine in disc
  effect on nicotine-induced fibrovascular growth: blocked
[1]; systemic nicotine
  effect on nicotine-induced fibrovascular growth: blocked

B1: Del1: Del-1 protein, known to induce angiogenesis; comparison agent in the disc pellet (protein, UniProt O43854 24-480, looked up)
EGF-like repeat and discoidin …: DICDPNPCENGGICLPGLADGSFSCECPDGFTDPNCSSVVEVASDEEEPTSAGPCTPNPCHNGGTCEISEAYRGDTFIGYVCKCPRGFNGIHCQHNINECEVEPCKNGGICTDLVANYSCECPGEFMGRNCQYKCSGPLGIEGGIISNQQITASSTHRALFGLQKWYPYYARLNKKGLINAWTAAENDRWPWIQINLQRKMRVTGVITQGAKRIGSPEYIKSYKIAYSNDGKTWAMYKVKGTNEDMVFRGNIDNNTPYANSFTPPIKAQYVRLYPQVCRRHCTLRMELLGCELSGCSEPLGMKSGHIQDYQITASSIFRTLNMDMFTWEPRKARLDKQGKVNAWTSGHNDQSQWLQVDLLVPTKVTGIITQGAKDFGHVQFVGSYKLAYSNDGEHWTVYQDEKQRKDKVFQGNFDNDTHRKNVIDPPIYARHIRILPWSWYGRITLRSELLGCTEEE
[1]
  angiogenesis in comparison to vehicle: increased angiogenesis to the same degree
